Measured values taken from US10668040B2, “Treatment of urea cycle disorders in neonates and infants” (Horizon Therapeutics, LLC, priority 2017, dated 2020).

System: UCD patients
Experiment: Example 3: TEAEs, serious and non-serious adverse events
Assay type: in vivo
From the text: Sixteen newborn infants aged 0 to 27 days, and 10 infants and toddlers aged 28 days to 23 months received RAVICTI Oral Liquid administered just prior to breastfeeding or intake of formula or food. The recommended dosing regimen was 3-6 times per day depending on feeding schedule.
Number of Subjects with Treatment-Emergent Adverse Events (TEAEs), Serious TEAEs, Deaths, and Discontinuations Due to TEAEs
An adverse event (AE) is any untoward medical occurrence, whether or not the event is considered related to the study drug. A serious AE is any AE that: results in death; is life threatening; requires hospitalization or prolongation of existing hospitalization; results in disability/incapacity; is a congenital anomaly/birth defect; is an important medical event. TEAEs are defined as AEs with an onset date on or after the first dose of study medication until study discontinuation. The Investigator assessed the causal relationship of each TEAE to the study drug as not related, possibly related, or probably related. From the first dose of study treatment through 30 days after the final dose (mean [SD] duration of treatment was 9.13 [6.838] months).

[1] = Non-serious adverse events, Age 0 to <2 Months

For `O=C(CCCc1ccccc1)OCC(COC(=O)CCCc1ccccc1)OC(=O)CCCc1ccccc1` [RAVICTI, benzenebutanoic acid, 1′,1″-(1,2,3-propanetriyl) ester], the “Serious AE Feeding Disorder: Occurrences causally related to treatment/all” value (Age 2 Months to <2 Years) was 0/0, the “Serious AE Gastroenteritis: Deaths causally related to treatment/all” value (Age 2 Months to <2 Years) was 0/0 and the “Serious AE Gastroenteritis: Occurrences causally related to treatment/all” value (Age 2 Months to <2 Years) was 0/1. The “Serious AE Hyperammonaemia: Deaths causally related to treatment/all” value (Age 2 Months to <2 Years) was 0/0, the “Serious AE Hyperammonaemia: Occurrences causally related to treatment/all” value (Age 2 Months to <2 Years) was 0/7 and the “Serious AE Influenza: Deaths causally related to treatment/all” value (Age 2 Months to <2 Years) was 0/0. The “Serious AE Influenza: Occurrences causally related to treatment/all” value (Age 2 Months to <2 Years) was 0/1, the “Serious AE Lethargy: Deaths causally related to treatment/all” value (Age 2 Months to <2 Years) was 0/0 and the “Serious AE Lethargy: Occurrences causally related to treatment/all” value (Age 2 Months to <2 Years) was 0/0. The “Serious AE Medical device site infection: Deaths causally related to treatment/all” value (Age 2 Months to <2 Years) was 0/0, the “Serious AE Medical device site infection: Occurrences causally related to treatment/all” value (Age 2 Months to <2 Years) was 0/0 and the “Serious AE Meningitis bacterial: Deaths causally related to treatment/all” value (Age 2 Months to <2 Years) was 0/0. The “Serious AE Meningitis bacterial: Occurrences causally related to treatment/all” value (Age 2 Months to <2 Years) was 0/0, the “Serious AE Neutropenia: Deaths causally related to treatment/all” value (Age 2 Months to <2 Years) was 0/0 and the “Serious AE Neutropenia: Occurrences causally related to treatment/all” value (Age 2 Months to <2 Years) was 0/0. The “Serious AE Peritonitis: Deaths causally related to treatment/all” value (Age 2 Months to <2 Years) was 0/1, the “Serious AE Peritonitis: Occurrences causally related to treatment/all” value (Age 2 Months to <2 Years) was 0/1 and the “Serious AE Pneumatosis intestinalis: Deaths causally related to treatment/all” value (Age 2 Months to <2 Years) was 0/1. The “Serious AE Pneumatosis intestinalis: Occurrences causally related to treatment/all” value (Age 2 Months to <2 Years) was 0/1, the “Serious AE Pyrexia: Deaths causally related to treatment/all” value (Age 2 Months to <2 Years) was 0/0 and the “Serious AE Pyrexia: Occurrences causally related to treatment/all” value (Age 2 Months to <2 Years) was 0/1. The “Serious AE Respiratory syncytial virus infection: Deaths causally related to treatment/all” value (Age 2 Months to <2 Years) was 0/0, the “Serious AE Rhinovirus infection: Deaths causally related to treatment/all” value (Age 2 Months to <2 Years) was 0/0 and the “Serious AE Status asthmaticus: Deaths causally related to treatment/all” value (Age 2 Months to <2 Years) was 0/0. For the same molecule, the “Serious AE Status asthmaticus: Occurrences causally related to treatment/all” value (Age 2 Months to <2 Years) was 0/1, the “Serious AE Tracheitis: Deaths causally related to treatment/all” value (Age 2 Months to <2 Years) was 0/0 and the “Serious AE Tracheitis: Occurrences causally related to treatment/all” value (Age 2 Months to <2 Years) was 0/0. For the same molecule, the “Serious AE Upper respiratory tract infection: Deaths causally related to treatment/all” value (Age 2 Months to <2 Years) was 0/0, the “Serious AE Upper respiratory tract infection: Occurrences causally related to treatment/all” value (Age 2 Months to <2 Years) was 0/0 and the “Serious AE Urinary tract infection: Deaths causally related to treatment/all” value (Age 2 Months to <2 Years) was 0/0. The “Serious AE Urinary tract infection: Occurrences causally related to treatment/all” value (Age 2 Months to <2 Years) was 0/1, the “Serious AE Viral infection: Deaths causally related to treatment/all” value (Age 2 Months to <2 Years) was 0/0 and the “Serious AE Viral infection: Occurrences causally related to treatment/all” value (Age 2 Months to <2 Years) was 0/2. For the same molecule, the “Serious AE Viral upper respiratory tract infection: Deaths causally related to treatment/all” value (Age 2 Months to <2 Years) was 0/0, the “Serious AE Viral upper respiratory tract infection: Occurrences causally related to treatment/all” value (Age 2 Months to <2 Years) was 0/1 and the “Serious AE Vomiting: Deaths causally related to treatment/all” value (Age 2 Months to <2 Years) was 0/0. For the same molecule, the “Serious AE Vomiting: Occurrences causally related to treatment/all” value (Age 2 Months to <2 Years) was 0/0, the “Agitation, Occurrences (all)” value [1] was 1 and the “Alanine aminotransferase increased, Occurrences (all)” value [1] was 1. For the same molecule, the “Amino acid level decreased, Occurrences (all)” value [1] was 1, the “Amino acid level increased, Occurrences (all)” value [1] was 2 and the “Ammonia increased, Occurrences (all)” value [1] was 1. For the same molecule, the “Anaemia, Occurrences (all)” value [1] was 3, the “Angular cheilitis, Occurrences (all)” value [1] was 2 and the “Anion gap increased, Occurrences (all)” value [1] was 1. The “Apnoea, Occurrences (all)” value [1] was 0, the “Arthropod bite, Occurrences (all)” value [1] was 1 and the “Aspartate aminotransferase increased, Occurrences (all)” value [1] was 1. The “Blood bicarbonate decreased, Occurrences (all)” value [1] was 1, the “Blood urea decreased, Occurrences (all)” value [1] was 1 and the “Body height below normal, Occurrences (all)” value [1] was 1. For the same molecule, the “Candida infection, Occurrences (all)” value [1] was 2, the “Carbon dioxide decreased, Occurrences (all)” value [1] was 2 and the “Cardiac disorders (Tachycardia), Occurrences (all)” value [1] was 1. The “Catheter site rash, Occurrences (all)” value [1] was 1, the “Conjunctivitis, Occurrences (all)” value [1] was 0 and the “Constipation, Occurrences (all)” value [1] was 2. The “Cough, Occurrences (all)” value [1] was 5, the “Croup infectious, Occurrences (all)” value [1] was 2 and the “Dacryostenosis congenital, Occurrences (all)” value [1] was 0. For the same molecule, the “Decreased appetite, Occurrences (all)” value [1] was 2, the “Dehydration, Occurrences (all)” value [1] was 4 and the “Dermatitis diaper, Occurrences (all)” value [1] was 6. The “Device occlusion, Occurrences (all)” value [1] was 1, the “Diarrhoea, Occurrences (all)” value [1] was 6 and the “Drug withdrawal syndrome, Occurrences (all)” value [1] was 1. The “Dysphagia, Occurrences (all)” value [1] was 1, the “Ear and labyrinth disorders (Excessive cerumen production), Occurrences (all)” value [1] was 0 and the “Ear infection, Occurrences (all)” value [1] was 3. For the same molecule, the “Eczema, Occurrences (all)” value [1] was 2, the “Eye discharge, Occurrences (all)” value [1] was 1 and the “Feeding disorder of infancy or early childhood, Occurrences (all)” value [1] was 1. The “Flatulence, Occurrences (all)” value [1] was 3, the “Gamma-glutamyltransferase increased, Occurrences (all)” value [1] was 1 and the “Gastroenteritis, Occurrences (all)” value [1] was 1. For the same molecule, the “Gastrointestinal viral infection, Occurrences (all)” value [1] was 1, the “Gastrooesophageal reflux disease, Occurrences (all)” value [1] was 6 and the “Gross motor delay, Occurrences (all)” value [1] was 0. The “Hepatic enzyme increased, Occurrences (all)” value [1] was 2, the “Hepatobiliary disorders (Hepatic calcification), Occurrences (all)” value [1] was 1 and the “Hyperammonaemia, Occurrences (all)” value [1] was 3. For the same molecule, the “Hypophagia, Occurrences (all)” value [1] was 1 and the “Immune System Disorders (Seasonal allergy), Occurrences (all)” value [1] was 0.
